Each structure is given as a SMILES string. Entries after “also recorded” stand apart in the source; their conditions may differ.

One assay relates to human lymphocytes. The experiment in a line: Concanavalin A-induced proliferation of human lymphocytes ([3H]-thymidine). The assay is classed as cell-based. To be noted: Lymphocyte, 72 h, 250 μM test compound, 2.5 μg/ml Concanavalin A, 3 days, 2 experiments. The protocol:
(§1) Effect of Compounds on Human Lymphocyte Proliferation Peripheral blood mononuclear cells were isolated from heparinized blood from healthy volunteers by density gradient centrifugation as described by Bain and Pshyk, Transplantation Proc, 4:163-164 (1972). Cell proliferation induced by Concanavalin A was measured in a standard assay such as described in Soderstrom et at., Scand J Immunol, 32:503-516 (1990) using 5% fetal bovine serum in the culture medium. The reaction mixture (final concentrations) consisted of 200 000 cells stimulated with 2.5 μg/ml Concanavalin A and test compounds in a total volume of 0.2 ml. The test compounds were added at the start of the assay, which was run for a total of three days with addition ofradioactive [3H]-thymidine during the last 18 h. Cell bound radioactivity was measured in a liquid scintillation counter.

Assay [1] deals with Human Granulocytes. Put plainly: FMLP-induced superoxide production of human granulocytes, 10 μM test compound. The assay is classed as cell-based. As to conditions: 10 nM FMLP, 400 000 granulocytes. Here is the method: Effects of Test Compounds on Superoxide Production of Human Granulocytes
(§2) Granulocytes were isolated from the heparinized blood from healthy volunteers. The superoxide assay was essentially that of J. M. McCord and I Fridovich (J. Biol. Chem. 244:6049-6055 (1969)) as modified by G Carlin et al. (Pharmacol. Toxicol 65:121-127 (1989)). The reaction mixture contained (final concentrations) 125 μM cytochrome C in Dulbeccos phosphate buffer with Mg and Ca, 10 μM test compound and 400 000 granulocytes treated with 5 μg/ml of cytochalasin B immediately before the experiment. This reaction mixture was preincubated at 37° C. for 10 minutes, whereafter 10 nM N-formyl-L-methionyl-L-leucyl-L-phenylalanine was added to start the reaction, making the final volume 1 ml. After 10 minutes the tubes were centrifuged and the absorbance of the supernatant at 540 and 550 nm was measured. The superoxide production was expressed as the difference in absorbance at these wavelengths.

Assay [2] relates to Human Granulocytes. Put plainly: FMLP-induced superoxide production of human granulocytes, 100 μM test compound. The format is cell-based. As to conditions: 100 nM FMLP, 600 000 granulocytes. Here is the method:
Effects of Test Compounds on Superoxide Production of Human Granulocytes at 100 um Concentration
as §2, with “et at.” for “et al.”, “Ca, 100” for “Ca, 10”, “and 600” for “and 400”, “whereafter 100” for “whereafter 10”

Assay [3] concerns human lymphocytes and granulocytes. Put plainly: Overall activity judged from the results of Examples 40 to 42. Here is the method: as §1, with “Peripheral” for “Effect of Compounds on Human Lymphocyte Proliferation Peripheral”
as §2
as §2, with “et at.” for “et al.”, “Ca, 100” for “Ca, 10”, “and 600” for “and 400”, “whereafter 100” for “whereafter 10”

The subject of the next assay is T-lymphocytes. To be noted: cited from earlier work.
For assay [4] the following is noted: rheumatoid arthritis, ulcerative colitis, ankylosing spondylitis, reactive arthritis, psoriasis; cited from earlier work.

By inhibition is commonly meant the percentage by which the read-out fell short of the control. Take `Cc1cccnc1NS(=O)(=O)c1ccc(C#Cc2ccc(O)c(C(=O)O)c2)cc1` [Example 2, 2-Hydroxy-5-[[4-[(3-methyl-2-pyridinylamino)-sulfonyl]phenyl]ethynyl]benzoic acid]: the inhibition at 250 µM in the assay on human lymphocytes came out at 99.5%. Besides, the inhibition at 10 µM in the assay on Human Granulocytes [1] was 86%. In the assay with Human Granulocytes [2], the inhibition at 100 µM came out at 94.1%. The Overall activity ranking entry in assay [3] was “most active; also recorded: considered to be the best one”.
Consider `O=C(O)c1cc(/N=N/c2ccc(S(=O)(=O)Nc3ccccn3)cc2)ccc1O` [Sulfasalazine, reference compound], for which the inhibition at 250 µM in the assay with human lymphocytes is 53.7%. Besides, in the assay on T-lymphocytes, the “Inhibition of activation and proliferation of T-lymphocytes” value is “inhibits activation and proliferation of T-lymphocytes”. The molecule further yielded an inhibition at 10 µM in the assay on Human Granulocytes [1] of 63.5%. The “Clinical effectiveness in autoimmune diseases” value in assay [4] is “clinically effective”. 100 µM produced 65.4% inhibition with Human Granulocytes [2].

(Values after patent US5403930A, “Substituted salicylic acids” (Pharmacia AB, priority 1991, dated 1995).)
